In one data set the target is T1, DOR (Homo sapiens, UniProt P41143).
T1 construct: expressed in transfected cells
Nature of the data set: Opioid receptor binding assay, DOR ([3H]-DADLE). On the procedure: (§1) Receptor binding assays were performed to assess the ability of compounds to inhibit binding to radiolabeled ligand.
(§2) The stable cell lines were established and prepared cell membrane obtained using these cell lines.
(§3) 1) Transfer 1 μl of specified concentration compound to assay plate according to the plate map for nonspecific binding. Transfer 1 μl of DMSO to assay plate according to plate map for total binding. 2) Follow the plate map. Dispense 99 μl of membrane stocks into the plate. 3) Add 100 μl of radio ligand. 4) Seal the plates. Incubate at RT for 1 hour. 5) Soak the Unifilter-96 GF/C filter plates with 50 μl of 0.3% PEI per well for at least 0.5 hour at room temperature. 6) When binding assays are completed, filter the reaction mixture through GF/C plates using Perkin Elmer Filtermate Harvester, and then wash each plate for 4 times with cold wash buffer. 7) Dry the filter plates for 1 hour at 50 degrees. 8) After drying, seal the bottom of the filter plate wells using Perkin Elmer Unifilter-96 backing seal tape. Add 50 μl of Perkin Elmer Microscint 20 cocktail. Seal top of filter plates with Perkin Elmer TopSeal-A sealing film. 9) Count ^3H trapped on filter using Perkin Elmer MicroBeta2 Reader second day. 10) Analyze the data with GraphPad Prism 5. Calculate the “Inhibition [% Control]” using the equation: % Inh=(1−Background subtracted Assay value/Background subtracted HC value)*100.

The target of a further data set is T2, KOR (Homo sapiens, UniProt P41145).
T2 construct: expressed in transfected cells
The data set is described as follows: Opioid receptor binding assay, KOR ([3H]Diprenorphine). On the procedure:
as §1, §2, §3

In the next data set the target is T3, MOR (Homo sapiens, UniProt P35372).
T3 construct: expressed in transfected cells
Nature of the data set: Opioid receptor binding assay, MOR ([3H]DAMGO). On the procedure:
as §1, §2, §3

Data set [1] can be described thus: Solubility determination in oil (Table 10). As to conditions: thermodynamic from solid; for solubility at 24 h / solubility: 25 °C, oil or lipid, Heating Temp. 60 °C, Obs. Temp. 25 °C; for solubility thermodynamic: 40 °C, water, Equilibrium solubility: Water, Heating Temp. 40 °C, Obs. Temp. 40 °C; for solubility: volumetric flask method. On the procedure: A known amount of test substance (˜40 mg) was weighed into the vial, 100 μL of oil was added and heated to 60° C. and then system was slurried to reach equilibrium. […] Extra oil was added into the vial once compound precipitated out and then the system was re-equilibrated at 1000 rpm at room temperature (25° C.). Final concentration was determined by HPLC method as described below in Table 6a and 6b.

The nature of data set [2]: Rat pharmacokinetic studies, intramuscular administration. Type of data set: in vivo, male Sprague Dawley Rats. To be noted: for AUC(0-inf): read-out: AUC0-inf (ng · h/mL) prodrug. On the procedure: The purpose of this study is to determine the pharmacokinetics of test compounds in plasma, following intramuscular administration to male Sprague Dawley Rats (n=3, unless otherwise specified).
The dose formulation of 400 mg base equivalents/ml in sesame oil+1% benzyl alcohol (unless otherwise specified) was administered by intramuscular injection. The dose volume was determined by the animals' body weight determined on the morning of dosing day.
Each collected blood sample was centrifuged for 4 minutes at 4° C. and 10000 rpm for plasma collection. Plasma was collected and transferred into a pre-labeled PP tube in dry ice at each time point and precipitated immediately using ACN at a ratio of 1:4 (plasma:ACN). Centrifuged again (10 minutes, 12000 rpm) and obtain the supernatant.
(§4) LC-MS/MS methods for the quantitative determination of test compound in biological matrix were developed. […] The sample analysis was performed concurrently with a set of calibration standards and two sets of QC samples using the LC-MS/MS method.
(§5) Plasma concentration versus time data was analyzed by non-compartmental approaches using the Phoenix WinNonlin 6.3 software program. Cmax, Tmax, T1/2, AUC(0-t), AUC(0-inf), MRT(0-t), MRT(0-inf) and graphs of plasma concentration versus time profile were prepared.

Data set [3] in a line: Dog pharmacokinetic studies, deep intramuscular administration. It is filed as in vivo, Beagle dogs. As to conditions: IM 48 mg/kg, Sesame oil + 1% Benzyl Alcohol; for AUC(0-inf) / half-life: Beagle, dog, plasma, im, 48 mg/kg; for AUC(0-inf): read-out: AUC0-inf (ng · h/mL) prodrug; for half-life: read-out: Half-life t1/2 (hour) prodrug (converted). On the procedure:
The purpose of this study is to determine the pharmacokinetics of test compounds in plasma, following deep intramuscular administration to Beagle dogs (n=3, unless otherwise specified).
The dose formulation (concentration—400 mg base equivalents/ml in sesame oil+1% benzyl alcohol, unless otherwise specified) was administered via deep intramuscularly (unless otherwise specified). The injection vehicle was also dosed via deep intramuscular route (unless otherwise specified) on contralateral site of each animal at study initiation. The animals were sedated with Propofol at 6 mg/kg via IV administration. Following sedation hair was carefully removed from around the injection site and the area gently cleaned. Care will be taken to avoid irritating skin during shaving and cleaning the injection site. Then dogs will be dosed with deep IM administration. At least 2.5 cm depth from the surface into the central aspect of the quadriceps or biceps femoris muscle, by angling the needle toward the femur. If the needle hits the femur, simply draws back slightly and then inject. The dose volume will be determined by the animals' body weight collected on the morning of dosing day. For repeated administration, the injection sites may be rotated to minimize tissue injury.
Blood samples were collected from a peripheral vessel from restrained, non-sedated animals per sampling time point.
Approximately 0.8 mL blood will be collected at each time point.
Each collected blood sample was centrifuged for 4 minutes at 4° C. and 10000 rpm for plasma collection. Plasma was collected and transferred into a pre-labeled PP tube in dry ice at each time point and precipitated immediately using ACN at a ratio of 1:4 (plasma:ACN).
as §4, §5

[4] abbreviates: Approximate Solubility in Excipient: Cottonseed oil.
Setting [5] is: Approximate Solubility in Excipient: Sesame oil.
Where [6] appears, read: male, Sprague Dawley, rat, plasma, intramuscular, 0.8 mg/kg.
The mark [7] stands for this setting: Solubility by volumetric flask method: Cottonseed oil.
The mark [8] stands for this setting: Solubility by volumetric flask method: Sesame oil.
The mark [9] stands for this setting: section 'Solubility by volumetric flask method'.

≈ marks a conversion by molar mass, not a printed value. Where a name gives a salt, the structure may show the parent alone.

T2 sequence (P41145 whole entry): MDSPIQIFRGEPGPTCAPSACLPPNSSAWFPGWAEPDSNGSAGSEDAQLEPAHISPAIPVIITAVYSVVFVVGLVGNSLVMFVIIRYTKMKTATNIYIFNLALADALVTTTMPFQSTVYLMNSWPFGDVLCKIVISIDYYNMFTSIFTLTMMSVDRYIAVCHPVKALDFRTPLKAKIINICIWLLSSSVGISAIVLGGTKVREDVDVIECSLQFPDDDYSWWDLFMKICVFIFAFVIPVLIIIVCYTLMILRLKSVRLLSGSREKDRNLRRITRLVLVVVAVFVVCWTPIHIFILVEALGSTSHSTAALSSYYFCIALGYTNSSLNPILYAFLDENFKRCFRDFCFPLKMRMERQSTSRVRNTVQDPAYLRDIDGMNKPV
T1 sequence (P41143 whole entry): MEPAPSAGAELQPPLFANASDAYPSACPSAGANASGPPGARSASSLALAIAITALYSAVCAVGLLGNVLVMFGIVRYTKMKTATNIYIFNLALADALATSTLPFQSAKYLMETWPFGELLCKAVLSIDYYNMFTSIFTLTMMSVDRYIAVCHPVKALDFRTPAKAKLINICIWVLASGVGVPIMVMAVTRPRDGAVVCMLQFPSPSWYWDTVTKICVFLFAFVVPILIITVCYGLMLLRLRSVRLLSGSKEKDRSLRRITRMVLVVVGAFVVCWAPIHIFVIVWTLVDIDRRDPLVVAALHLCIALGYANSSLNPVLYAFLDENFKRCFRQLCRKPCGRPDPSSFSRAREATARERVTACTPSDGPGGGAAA
T3 sequence (P35372 whole entry): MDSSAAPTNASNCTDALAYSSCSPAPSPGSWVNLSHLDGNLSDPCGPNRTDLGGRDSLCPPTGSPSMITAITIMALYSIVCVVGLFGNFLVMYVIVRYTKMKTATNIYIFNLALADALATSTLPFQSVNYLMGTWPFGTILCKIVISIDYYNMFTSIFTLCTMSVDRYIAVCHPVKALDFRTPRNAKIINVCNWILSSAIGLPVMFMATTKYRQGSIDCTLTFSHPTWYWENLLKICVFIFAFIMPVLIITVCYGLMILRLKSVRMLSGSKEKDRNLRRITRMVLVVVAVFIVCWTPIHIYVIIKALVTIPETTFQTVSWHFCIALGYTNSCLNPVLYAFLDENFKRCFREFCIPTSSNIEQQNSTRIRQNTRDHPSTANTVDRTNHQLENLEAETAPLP

As for `C=C1CC[C@@]2(O)C3Cc4ccc(OCOC(=O)OCCCCCCCCCCCCCCCC)c5c4[C@@]2(CCN3CC2CC2)[C@H]1O5` [Compound 34, (((4aS,7aS,12bS)-3-(cyclopropylmethyl)-4a-hydroxy-7-methylene-2,3,4,4a,5,6,7,7a-octahydro-1H-4,12-methanobenzofuro[3,2-e]isoquinolin-9-yl)oxy)methyl hexadecyl carbonate], the results for the IC50 at DOR, on KOR and on MOR were more than 10000 nM, 1770 nM and 12.5 nM, respectively. The results for the solubility at 24 h in data set [1] (setting [4]) and in data set [1] (setting [5]) were more than 404 mg/mL and more than 405 mg/mL, respectively. In data set [1], this molecule displayed a thermodynamic solubility of less than 0.001 mg/mL.
With `C=C1CC[C@@]2(O)C3Cc4ccc(OCOC(=O)CCCCCCCCCCCCCCC)c5c4[C@@]2(CCN3CC2CC2)[C@H]1O5` [Compound 46, (((4aS,7aS,12bS)-3-(cyclopropylmethyl)-4a-hydroxy-7-methylene-2,3,4,4a,5,6,7,7a-octahydro-1H-4,12-methanobenzofuro[3,2-e]isoquinolin-9-yl)oxy)methyl hexadecanoate], the 50% inhibitory concentration (IC50) on DOR was 1360 nM; on KOR it was 33.9 nM; at MOR, 4.52 nM. The solubility at 24 h in data set [1] (setting [4]) is more than 396 mg/mL; in data set [1] (setting [5]) it was 202 to 269 mg/mL (≈ 332 to 443 mM). Further, the solubility (thermodynamic) in data set [1] was less than 0.001 mg/mL.
Consider `C=C1CC[C@@]2(O)C3Cc4ccc(OC(=O)CCCCCCCCCCC)c5c4[C@@]2(CCN3CC2CC2)[C@H]1O5` [Compound 59, (4aS,7aS,12bS)-3-(cyclopropylmethyl)-4a-hydroxy-7-methylene-2,3,4,4a,5,6,7,7a-octahydro-1H-4,12-methanobenzofuro[3,2-e]isoquinolin-9-yl dodecanoate, reference compound], for which the AUC(0-inf) in data set [2] (male, Sprague Dawley, rat, plasma, im, 17 mg/kg, Sesame oil + 1% Benzyl Alcohol) was 10.4 ng·h/mL. Also, the half-life in data set [2] (male, Sprague Dawley, rat, plasma, im, 17 mg/kg, Sesame oil + 1% Benzyl Alcohol, read-out: Half-life t1/2 (hour) prodrug (converted)) was 15.2 h.
On to `CCCCCCCCCCCCOC(=O)OCOc1ccc2c3c1O[C@H]1C(=O)CC[C@@]4(O)C(C2)N(CC2CC2)CC[C@]314` [Compound 29, (((4aS,7aR,12bS)-3-(cyclopropylmethyl)-4a-hydroxy-7-oxo-2,3,4,4a,5,6,7,7a-octahydro-1H-4,12-methanobenzofuro[3,2-e]isoquinolin-9-yl)oxy)methyl dodecyl carbonate], for which the solubility at 24 h in data set [1] (setting [4]) was more than 410 mg/mL; in data set [1] (setting [5]), more than 416 mg/mL. Also, the solubility (thermodynamic) in data set [1] is less than 0.001 mg/mL. Moreover, the AUC(0-inf) in data set [2] (male, Sprague Dawley, rat, plasma, im, 165 mg/kg, Sesame oil + 1% Benzyl Alcohol) was found to be 74.8 ng·h/mL.
As to `C=C1CC[C@@]2(O)[C@H]3Cc4ccc(O)c5c4[C@@]2(CCN3CC2CC2)[C@H]1O5.Cl` [Nalmefene HCl - IR], in data set [2] (0.80 mg/kg, saline), the “AUC0-inf (ng · h/mL) nalmefene” value amounted to 66.0 ng·h/mL and the “Terminal Half-life t1/2 (hour) nalmefene” value turned out to be 0.87 h.
As to `C=C1CC[C@@]2(O)[C@H]3Cc4ccc(O)c5c4[C@@]2(CCN3CC2CC2)[C@H]1O5` [nalmefene HCL, reference compound], in data set [2] (setting [6]), the concentration at 1 h worked out at 29.4 ng/mL, the concentration at 2 h was 2.09 ng/mL, the concentration at 4 h is 0.212 ng/mL and the concentration at 8 h is 0.0178 ng/mL.
With `CCCCCCCC/C=C/CCCCCCCCOC(=O)OCOc1ccc2c3c1O[C@H]1C(=O)CC[C@@]4(O)C(C2)N(CC2CC2)CC[C@]314` [Compound 7, (((4aS,7aR,12bS)-3-(cyclopropylmethyl)-4a-hydroxy-7-oxo-2,3,4,4a,5,6,7,7a-octahydro-1H-4,12-methanobenzofuro[3,2-e]isoquinolin-9-yl)oxy)methyl ((E)-octadec-9-en-1-yl) carbonate], the AUC(0-inf) in data set [3] was 610 ng·h/mL.
In data set [1] (setting [7]), `C=C1CC[C@@]2(O)C3Cc4ccc(OC(=O)OCCCCCCCCCCC)c5c4[C@@]2(CCN3CC2CC2)[C@H]1O5` [Compound 3, (4aS,7aS,12bS)-3-(cyclopropylmethyl)-4a-hydroxy-7-methylene-2,3,4,4a,5,6,7,7a-octahydro-1H-4,12-methanobenzofuro[3,2-e]isoquinolin-9-yl undecyl carbonate] returned a solubility of more than 399 mg/mL. This molecule returned a solubility in data set [1] (setting [8]) of more than 401 mg/mL. For the same molecule, the solubility (thermodynamic) in data set [1] (setting [9]) is less than 0.001 mg/mL. For the same molecule, in data set [3], the AUC(0-inf) was 360 ng·h/mL and the half-life is 63.1 h.
Regarding `CCCCCCCCCCCOC(=O)OCOc1ccc2c3c1O[C@H]1C(=O)CC[C@@]4(O)C(C2)N(CC2CC2)CC[C@]314` [Compound 4, (((4aS,7aR,12bS)-3-(cyclopropylmethyl)-4a-hydroxy-7-oxo-2,3,4,4a,5,6,7,7a-octahydro-1H-4,12-methanobenzofuro[3,2-e]isoquinolin-9-yl)oxy)methyl undecyl carbonate], the solubility in data set [1] (setting [7]) was more than 395 mg/mL; in data set [1] (setting [8]), more than 400 mg/mL. The thermodynamic solubility in data set [1] (setting [9]) was less than 0.001 mg/mL. The AUC(0-inf) in data set [3] stood at 829 ng·h/mL.
For the molecule `C=C1CC[C@@]2(O)C3Cc4ccc(OCOC(=O)OCCCCCCCCCC)c5c4[C@@]2(CCN3CC2CC2)[C@H]1O5` [Compound 35, (((4aS,7aS,12bS)-3-(cyclopropylmethyl)-4a-hydroxy-7-methylene-2,3,4,4a,5,6,7,7a-octahydro-1H-4,12-methanobenzofuro[3,2-e]isoquinolin-9-yl)oxy)methyl decyl carbonate], in data set [3], the half-life is 70 h, the “AUC0-inf (ng · h/mL) nalmefene or naltrexone” value is “None” and the “AUC0-inf (ng · h/mL) prodrug” value is on record as “None”.
As for `C=C1CC[C@@]2(O)C3Cc4ccc(OCOC(=O)OCCCCCCCC/C=C/CCCCCCCC)c5c4[C@@]2(CCN3CC2CC2)[C@H]1O5` [Compound 1, (((4aS,7aS,12bS)-3-(cyclopropylmethyl)-4a-hydroxy-7-methylene-2,3,4,4a,5,6,7,7a-octahydro-1H-4,12-methanobenzofuro[3,2-e]isoquinolin-9-yl)oxy)methyl ((E)-octadec-9-en-1-yl) carbonate], in data set [3], the AUC(0-inf) worked out at 1040 ng·h/mL and the half-life is 261 h.

Broadly, the IC50 is the concentration that gives 50% inhibition. Read a low IC50 as greater potency in that assay. The term solubility denotes the concentration that dissolves in the medium under given conditions. A higher solubility goes with a readily soluble substance. The term solubility (thermodynamic) denotes the concentration in solution at equilibrium with solid.

The record behind these values is patent US20190308988A1, “OPIOID RECEPTOR ANTAGONIST PRODRUGS” (Nirsum Laboratories, Inc., priority 2017, published 2019).
